# In PubChem BioAssay AID2060508 (Molecular Pharmacology Branch, DTP, NCI, 2025):
# System: 454973-116-R2-J3-PDC spheroids, viability, % test/control
# Assay: Anticancer human tumor 454973-116-R2-J3-PDC patient-derived pancreatic carcinoma cell line growth inhibition [GQUAD]
# Conditions: spheroids with HUVEC and MSC; for IC50: curve of first compound; for viability, T/C: stronger effect = lower value
# Outline: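 Multi-cell-type spheroids of tumor cells with HUVEC and mesenchymal stem cells, treated with drug combinations. Concentrations descend in half-log steps from near clinical Cmax, or from 10 microM where Cmax is unknown; viability read-out.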
# [1] = second compound 0.0316 µM, first compound 0.0316 µM
# [2] = second compound 0.0316 µM, first compound 0.1 µM
# [3] = second compound 0.0316 µM, first compound 0.316 µM
# [4] = second compound 0.0316 µM, first compound 1 µM
# [5] = second compound 0.0316 µM, first compound 3.16 µM
# [6] = second compound 0.0316 µM, first compound 10 µM
# [7] = second compound 0.1 µM, first compound 0.0316 µM
# [8] = second compound 0.1 µM, first compound 0.1 µM
# [9] = second compound 0.1 µM, first compound 0.316 µM
# [10] = second compound 0.1 µM, first compound 1 µM
# [11] = second compound 0.1 µM, first compound 3.16 µM
# [12] = second compound 0.1 µM, first compound 10 µM
# [13] = second compound 0.316 µM, first compound 0.0316 µM
# [14] = second compound 0.316 µM, first compound 0.1 µM
# [15] = second compound 0.316 µM, first compound 0.316 µM
# [16] = second compound 0.316 µM, first compound 1 µM
# [17] = second compound 0.316 µM, first compound 3.16 µM
# [18] = second compound 0.316 µM, first compound 10 µM
# [19] = second compound 1 µM, first compound 0.0316 µM
# [20] = second compound 1 µM, first compound 0.1 µM
# [21] = second compound 1 µM, first compound 0.316 µM
# [22] = second compound 1 µM, first compound 1 µM
# [23] = second compound 1 µM, first compound 3.16 µM
# [24] = second compound 1 µM, first compound 10 µM
# [25] = second compound 3.16 µM, first compound 0.0316 µM
# [26] = second compound 3.16 µM, first compound 0.1 µM
# [27] = second compound 3.16 µM, first compound 0.316 µM
# [28] = second compound 3.16 µM, first compound 1 µM
# [29] = second compound 3.16 µM, first compound 3.16 µM
# [30] = second compound 3.16 µM, first compound 10 µM
# [31] = second compound 10 µM, first compound 0.0316 µM
# [32] = second compound 10 µM, first compound 0.1 µM
# [33] = second compound 10 µM, first compound 0.316 µM
# [34] = second compound 10 µM, first compound 1 µM
# [35] = second compound 10 µM, first compound 3.16 µM
# [36] = second compound 10 µM, first compound 10 µM
# 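Also: spheroids exposed to compounds for seven days.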
# 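For viability, T/C in this document: 100% = DMSO vehicle control viability.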
structure (smiles),measurement,setting,value
CC1COCCN1c1cc(-c2ccnn2C)c2ccnc(-c3ccn[nH]3)c2n1 (stereo not drawn) + CN(C)c1ccc(Nc2c3ccc(NC(=O)CCN4CCCC4)cc3nc3cc(NC(=O)CCN4CCCC4)ccc23)cc1,IC50,second compound 0.0316 µM,182 nM
same,IC50,second compound 0.1 µM,190 nM
same,IC50,second compound 0.316 µM,190 nM
same,IC50,second compound 1 µM,171 nM
same,IC50,second compound 3.16 µM,141 nM
same,IC50,second compound 10 µM,79 nM
same,"viability, T/C",[1],97.9%
same,"viability, T/C",[2],66.8%
same,"viability, T/C",[3],35.2%
same,"viability, T/C",[4],23%
same,"viability, T/C",[5],24%
same,"viability, T/C",[6],29.4%
same,"viability, T/C",[7],102%
same,"viability, T/C",[8],72%
same,"viability, T/C",[9],32.9%
same,"viability, T/C",[10],22.9%
same,"viability, T/C",[11],23.1%
same,"viability, T/C",[12],26.1%
same,"viability, T/C",[13],94.3%
same,"viability, T/C",[14],74.1%
same,"viability, T/C",[15],31%
same,"viability, T/C",[16],21.3%
same,"viability, T/C",[17],21.7%
same,"viability, T/C",[18],29.4%
same,"viability, T/C",[19],91.3%
same,"viability, T/C",[20],63.1%
same,"viability, T/C",[21],36.2%
same,"viability, T/C",[22],20.8%
same,"viability, T/C",[23],22.6%
same,"viability, T/C",[24],27.5%
same,"viability, T/C",[25],87%
same,"viability, T/C",[26],55.5%
same,"viability, T/C",[27],38%
same,"viability, T/C",[28],21.3%
same,"viability, T/C",[29],26.2%
same,"viability, T/C",[30],27.1%
same,"viability, T/C",[31],69.8%
same,"viability, T/C",[32],45.5%
same,"viability, T/C",[33],31.4%
same,"viability, T/C",[34],27.6%
same,"viability, T/C",[35],24.1%
same,"viability, T/C",[36],27%
Cc1[nH]c2ccccc2c1CCNCc1ccc(/C=C/C(=O)NO)cc1 + CN(C)c1ccc(Nc2c3ccc(NC(=O)CCN4CCCC4)cc3nc3cc(NC(=O)CCN4CCCC4)ccc23)cc1,IC50,second compound 0.0316 µM,72.5 nM
same,IC50,second compound 0.1 µM,66.8 nM
same,IC50,second compound 0.316 µM,56.3 nM
same,IC50,second compound 1 µM,48.8 nM
same,IC50,second compound 3.16 µM,53.2 nM
same,IC50,second compound 10 µM,35.4 nM
same,"viability, T/C","second compound 0.0316 µM, first compound 0.000999 µM",104%
same,"viability, T/C","second compound 0.0316 µM, first compound 0.00316 µM",102%
same,"viability, T/C","second compound 0.0316 µM, first compound 0.00999 µM",106%
same,"viability, T/C",[1],83.2%
same,"viability, T/C","second compound 0.0316 µM, first compound 0.0999 µM",37.1%
same,"viability, T/C",[3],6.62%
same,"viability, T/C","second compound 0.1 µM, first compound 0.000999 µM",107%
same,"viability, T/C","second compound 0.1 µM, first compound 0.00316 µM",96.7%
same,"viability, T/C","second compound 0.1 µM, first compound 0.00999 µM",92.8%
same,"viability, T/C",[7],89.5%
same,"viability, T/C","second compound 0.1 µM, first compound 0.0999 µM",28.9%
same,"viability, T/C",[9],6.22%
same,"viability, T/C","second compound 0.316 µM, first compound 0.000999 µM",93.8%
same,"viability, T/C","second compound 0.316 µM, first compound 0.00316 µM",93.3%
same,"viability, T/C","second compound 0.316 µM, first compound 0.00999 µM",99.2%
same,"viability, T/C",[13],68.7%
same,"viability, T/C","second compound 0.316 µM, first compound 0.0999 µM",30.2%
same,"viability, T/C",[15],6.88%
same,"viability, T/C","second compound 1 µM, first compound 0.000999 µM",96.8%
same,"viability, T/C","second compound 1 µM, first compound 0.00316 µM",92.5%
same,"viability, T/C","second compound 1 µM, first compound 0.00999 µM",92.3%
same,"viability, T/C",[19],65.1%
same,"viability, T/C","second compound 1 µM, first compound 0.0999 µM",24.5%
same,"viability, T/C",[21],8.83%
same,"viability, T/C","second compound 3.16 µM, first compound 0.000999 µM",90.1%
same,"viability, T/C","second compound 3.16 µM, first compound 0.00316 µM",86.7%
same,"viability, T/C","second compound 3.16 µM, first compound 0.00999 µM",82.1%
same,"viability, T/C",[25],70.3%
same,"viability, T/C","second compound 3.16 µM, first compound 0.0999 µM",26.2%
same,"viability, T/C",[27],7.17%
same,"viability, T/C","second compound 10 µM, first compound 0.000999 µM",68%
same,"viability, T/C","second compound 10 µM, first compound 0.00316 µM",70.9%
same,"viability, T/C","second compound 10 µM, first compound 0.00999 µM",65.6%
same,"viability, T/C",[31],51.8%
same,"viability, T/C","second compound 10 µM, first compound 0.0999 µM",27.1%
same,"viability, T/C",[33],4.66%
CCCS(=O)(=O)Nc1ccc(F)c(C(=O)c2c[nH]c3ncc(-c4ccc(Cl)cc4)cc23)c1F + Cc1cnc(CNC(=O)c2c(=O)c3ccc(N4CCCN(C)CC4)nc3n3c2sc2ccccc23)cn1,IC50,second compound 0.0316 µM,6440 nM
same,IC50,second compound 0.1 µM,5990 nM
same,IC50,second compound 0.316 µM,5080 nM
same,IC50,second compound 1 µM,4250 nM
same,IC50,second compound 3.16 µM,5130 nM
same,IC50,second compound 10 µM,< 31.6 nM
same,"viability, T/C",[1],94.2%
same,"viability, T/C",[2],105%
same,"viability, T/C",[3],117%
same,"viability, T/C",[4],106%
same,"viability, T/C",[5],117%
same,"viability, T/C",[6],14.1%
same,"viability, T/C",[7],77.4%
same,"viability, T/C",[8],88%
same,"viability, T/C",[9],99%
same,"viability, T/C",[10],94.6%
same,"viability, T/C",[11],95.2%
same,"viability, T/C",[12],17.3%
same,"viability, T/C",[13],70.7%
same,"viability, T/C",[14],73.4%
same,"viability, T/C",[15],79.5%
same,"viability, T/C",[16],96%
same,"viability, T/C",[17],70.9%
same,"viability, T/C",[18],20.2%
same,"viability, T/C",[19],65.9%
same,"viability, T/C",[20],71.9%
same,"viability, T/C",[21],80.2%
same,"viability, T/C",[22],66.4%
same,"viability, T/C",[23],60.2%
same,"viability, T/C",[24],21.9%
same,"viability, T/C",[25],55.1%
same,"viability, T/C",[26],62.2%
same,"viability, T/C",[27],72.3%
same,"viability, T/C",[28],67.9%
same,"viability, T/C",[29],68.3%
same,"viability, T/C",[30],29.2%
same,"viability, T/C",[31],0.45%
same,"viability, T/C",[32],18.1%
same,"viability, T/C",[33],28.6%
same,"viability, T/C",[34],35.6%
same,"viability, T/C",[35],0.54%
same,"viability, T/C",[36],0.2%
Nc1ccn(C2OC(CO)C(O)C2(F)F)c(=O)n1 (stereo not drawn) + Cc1cnc(CNC(=O)c2c(=O)c3ccc(N4CCCN(C)CC4)nc3n3c2sc2ccccc23)cn1,IC50,second compound 0.0316 µM,< 31.6 nM
same,IC50,second compound 0.1 µM,< 31.6 nM
same,IC50,second compound 0.316 µM,< 31.6 nM
same,IC50,second compound 1 µM,< 31.6 nM
same,IC50,second compound 3.16 µM,< 31.6 nM
same,IC50,second compound 10 µM,< 31.6 nM
same,"viability, T/C",[1],18.9%
same,"viability, T/C",[2],15.8%
same,"viability, T/C",[3],17.5%
same,"viability, T/C",[4],16.6%
same,"viability, T/C",[5],14.2%
same,"viability, T/C",[6],14.4%
same,"viability, T/C",[7],22.7%
same,"viability, T/C",[8],16.1%
same,"viability, T/C",[9],15.6%
same,"viability, T/C",[10],21.5%
same,"viability, T/C",[11],17.8%
same,"viability, T/C",[12],13.8%
same,"viability, T/C",[13],30.5%
same,"viability, T/C",[14],19.5%
same,"viability, T/C",[15],18.4%
same,"viability, T/C",[16],16.1%
same,"viability, T/C",[17],20.2%
same,"viability, T/C",[18],23.2%
same,"viability, T/C",[19],43.7%
same,"viability, T/C",[20],24.6%
same,"viability, T/C",[21],24%
same,"viability, T/C",[22],24.2%
same,"viability, T/C",[23],22.9%
same,"viability, T/C",[24],21.8%
same,"viability, T/C",[25],45.5%
same,"viability, T/C",[26],29.6%
same,"viability, T/C",[27],30.5%
same,"viability, T/C",[28],24.8%
same,"viability, T/C",[29],32.8%
same,"viability, T/C",[30],28.5%
same,"viability, T/C",[31],0.17%
same,"viability, T/C",[32],9.59%
same,"viability, T/C",[33],26.2%
same,"viability, T/C",[34],7.48%
same,"viability, T/C",[35],0.89%
same,"viability, T/C",[36],0.22%
